The text below walks through data of patent US12643889B2, “Synthesis of novel EP4 antagonist and use in cancer and inflammation” (Wuhan Humanwell Innovative Drug Research And Development …, priority 2020, dated 2026).

Each structure is given as a SMILES string.

By AUC(0-t) is commonly meant exposure summed from dosing to a finite time, without extrapolation to infinity. The low end stands for less exposure, the high end for more exposure. For orientation: clearance means the rate of elimination divided by the concentration. Usually half-life stands for how long it takes for the measured level to halve. A higher half-life goes with slow loss. Broadly, the Cmax is the peak of the concentration-time curve. The Tmax is the time at which the peak concentration occurs. As a reminder, the IC50 is the concentration that gives 50% inhibition. Usually Ki stands for a dissociation constant, usually derived from enzyme kinetics or from competition with a known ligand.

Data set [1] in a line: Canine pharmacokinetic assay. In kind it is in vivo, male Beagle dogs. The conditions noted are these: male, Beagle, dog, plasma, canine. How it is done:
(§1) In a mouse pharmacokinetic assay, male ICR mice (20 g to 25 g) were selected and fasted overnight. Three mice were selected and intragastrically administered with 5 mg/kg of the corresponding compound. The blood of the mice was collected before the administration and at 15 min, 30 min, 1 h, 2 h, 4 h, 8 h, 24 h after the administration. Another 3 mice were intravenously administered with 1 mg/kg of the corresponding compound, and the blood thereof was collected before the administration and at 15 min, 30 min, 1 h, 2 h, 4 h, 8 h, 24 h after the administration. The blood samples were centrifuged at 6800 g at 2° C. to 8° C. for 6 minutes, and plasma was collected and stored at −80° C. The plasma was taken at respective time point, mixed with 3-5 times the amount of acetonitrile containing internal standard, vortexed for 1 minute, centrifuged at 4° C. for 10 minutes at 13000 rpm, supernatant was added 3 times the amount of water, and the appropriate mixture was taken for LC-MS/MS analysis. The primary pharmacokinetic parameters were analyzed with a WinNonlin 7.0 software, with non-compartmental model.
In a canine pharmacokinetic assay, male Beagle dogs (8 kg to 10 Kg) were selected and fasted overnight. Three Beagle dogs were taken and intragastrically administered with 3 mg/kg of the corresponding compound. Another 3 Beagle dogs were intravenously administered with 1 mg/kg of the corresponding compound. The following operations were the same as the mouse pharmacokinetic assay.

Data set [2] in a line: Mouse pharmacokinetic assay. In kind it is in vivo, male ICR mice. The conditions noted are these: male, ICR, plasma. How it is done: as §1
Data set [3] deals with CT-26 murine colon cancer tumor model. Description: Anti-tumor effect in CT-26 murine colon cancer tumor model in combination with radiation therapy. In kind it is in vivo, mouse. To be noted: 150 mg/kg intragastric once daily in combination with radiotherapy (3Gry, once on day 1); day 23; tumor weight. Here is the method: In this assay, the anti-tumor effects of the control compound and the compounds prepared in Examples 1 to 43, in combination with radiation therapy, were tested in a CT-26 murine colon cancer tumor model.
After one week of adaptive feeding of mice, CT-26 cells in a log phase were resuspended in PBS, 5×10^5 CT-26 cells were inoculated subcutaneously at the right flank at 100 μL per mouse, and tumor growth was observed regularly. When the tumor grew to an average volume of 60 to 80 mm^3, the mice carrying the tumor were randomly divided into 5 groups based on the tumor volume size, each group containing 10 mice of 10. These group were a group of Control compound (150 mg/kg) in combination with radiotherapy (3Gry), a group of Compound I-2 (150 mg/kg) in combination with radiotherapy, a group of Compound I-5 (150 mg/kg) in combination with radiotherapy, a group of radiotherapy (3Gry) alone, and a group of vehicle control. The mice were intragastrically administered with the corresponding compound once daily, for 23 days in total; radiation therapy was performed for one-time on the first day of the administration. Tumor volumes and mouse body weights were measured twice a week, and tumor weights were weighed at the end of the experiment. Efficacy evaluations were performed based on relative tumor inhibition (TGI), safety evaluations were performed based on changes in animal body weight and death. Tumor volume and relative tumor inhibition were calculated as follows:
Tumor volume (TV)=½×a×b^2, where a and b are the length and width of the tumor measurement, respectively.
Relative tumor inhibition rate TGI (%)=(TWc−TWt/TWc)×100%, where TWc is the mean tumor weight of the vehicle control group and TW is the mean tumor weight of the treatment group.

Data set [4] can be described thus: Rat pharmacokinetic assay. It counts as in vivo, male SD rats. To be noted: male, SD, plasma, rat. Here is the method:
as §1
In a rat pharmacokinetic assay, male SD rats (180 g to 240 g) were selected and fasted overnight. Three rats were intragastrically administered with 5 mg/kg of the corresponding compound. Another 3 rats were intravenously administered with 1 mg/kg of the corresponding compound. The following operations were the same as the mouse pharmacokinetic assay.

For data set [5], the target named is T1, recombinant human EP4 receptor membrane protein (Homo sapiens, UniProt P35408).
T1 construct: expressed in transfected cells; host or cells: membranes of 293 cells overexpressing human EP4 receptor
T1 sequence (P35408 whole entry): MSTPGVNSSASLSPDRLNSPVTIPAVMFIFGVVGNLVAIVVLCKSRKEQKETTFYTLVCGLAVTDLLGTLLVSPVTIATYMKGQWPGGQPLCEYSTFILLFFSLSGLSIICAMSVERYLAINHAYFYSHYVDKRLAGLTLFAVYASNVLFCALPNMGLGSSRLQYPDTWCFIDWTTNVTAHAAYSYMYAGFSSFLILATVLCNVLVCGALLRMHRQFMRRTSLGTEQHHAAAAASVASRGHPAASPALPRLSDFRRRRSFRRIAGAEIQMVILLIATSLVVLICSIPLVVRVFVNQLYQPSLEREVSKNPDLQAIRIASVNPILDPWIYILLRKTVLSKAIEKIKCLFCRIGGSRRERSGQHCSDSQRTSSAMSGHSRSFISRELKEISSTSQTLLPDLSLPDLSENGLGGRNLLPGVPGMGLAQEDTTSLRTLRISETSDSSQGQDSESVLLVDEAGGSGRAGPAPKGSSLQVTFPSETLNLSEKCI
Nature of the data set: Radioligand binding assay for EP4 receptor ([3H]-PGE2). To be noted: [3H]-PGE2 1.5 nM; membrane protein 20 μg/well. How it is done: The compounds to be tested and PGE2 were formulated as 10 mM stocks in a DMSO solvent, and then 8 concentration points of 4× working solution were serially diluted using a buffer (50 mM HBSS, 0.1% BSA, 500 mM NaCl). […] Unifilter-96 GF/C filter plate (Perkin Elmer) was soaked with 0.5% BSA, 50 μL per well, for at least 30 min at room temperature. After binding was complete, the reaction mixture was harvested through a GF/C plate using a Perkin Elmer Filtermate Harvester, followed by washing the filter plate and drying the filter plate for 1 hour at 50° C. After drying, the bottom of the filter plate wells was sealed using a Perkin Elmer Unifilter-96 sealing tape, and 50 μL of MicroScint™-20 cocktail (Perkin Elmer) was added to seal the top of the filter plate. The ^3H counts captured on the filter were read using a Perkin Elmer MicroBeta2 Reader.
The IC50 and Ki values of the compounds determined by the radioligand binding assay for EP4 receptor were calculated based on the inhibition rate of the different concentrations of the compounds.

For data set [6], the target named is T2, human EP4 receptor (Homo sapiens, UniProt P35408). Nature of the data set: Assay of calcium current inhibition on EP4 receptor (FLIPR, 293 cells). In kind it is cell-based. Also noted: expressed in transfected cells; host or cells: 293 cells. To be noted: 293 cells overexpressing human EP4; PGE2 at EC80; FLIPR. How it is done:
The cells were rapidly thawed in a 37° C. water bath, centrifuged, resuspended, and counted. The cell suspensions were seeded at 20 μL/well in two 384-well plates (20,000 cells/well) and placed in an incubator (a 37° C., 5% CO2) overnight. Preparation of a 2× Fluo-4 Direct™ (Invitrogen, Cat #F10471) loading buffer: 77 mg of probenecid was added to 1 mL of a FLIPR buffer, with a concentration of 250 mM. 10 mL of FLIPR buffer and 0.2 mL of probenecid (250 mM) were added to each tube of Fluo-4 Direct™ crystals (F10471).
One of the cell plates was taken out of the incubator and the medium was removed. 20 μL of an assay buffer and 2× Fluo-4 Direct™ non-wash loading buffer were added to the 384-well cell culture plate to a final volume of 40 μL, and then the culture plate was incubated in an incubator (a 37° C., 5% CO2) for 50 minutes, and then at room temperature for 10 minutes, and then the plate was placed in the FLIPR. 10 μL of the buffer was transferred to the cell plate and the fluorescence signal was read. The agonist PGE2 was formulated as a 10 mM stock in a DMSO solvent and 10 concentration points of the 6× working solution were serially diluted using the buffer. 10 μL of the agonist PGE2 was transferred to the cell plate, the fluorescence signal was read to calculate EC80 value.
The agonist PGE2 was prepared at 6× EC80 concentration and the compound to be tested was formulated as a 10 mM stock solution in the DMSO solvent and 10 concentration points of the 6× compound working solution was serially diluted using the buffer.
Another cell plate was taken to remove media and 20 μL of the assay buffer and 2× Fluo-4 Direct™ non-wash loading buffer were added; the cell plate was incubated in a 37° C., 5% CO2 incubator for 50 minutes and room temperature for 10 minutes and then placed in the FLIPR. 10 μL of the compound working solution, DMSO, and the EP4 full antagonist were transferred to the cell plate and the fluorescence signal was read. […] Inhibition (%)=100−(test group−EP4 full antagonist group)/(DMSO group−EP4 full antagonist group)*100
Compound's IC50 value of EP4 calcium current inhibition was calculated based on the inhibition rate at different concentrations of the compound.

The target in data set [7] is T2, human EP4 receptor. Description: Assay for EP4 antagonistic effect (cAMP, PGE2-stimulated CHO stable cell line).
Protocol: After trypsinization, cells were resuspended in a buffer (1×HBSS, 0.1% BSA, 20 mM HEPES, and 500 μM IBMX) and 8000 cells were seeded per well in 384-well plates in a seeding volume of 15 μL. A working solution the compound with a 8× concentration was prepared with an experimental buffer, and then 2.5 μL of the working solution of the compound with 8× concentration was added to the 384-well plate, respectively, and incubated at 37° C. for 30 min. An agonist PGE2 working solution with 8× concentration of (4 nM) was prepared with the experimental buffer and 2.5 μL per well was added to the 384-well plate (the final PGE2 concentration was 0.5 nM) and incubated at 37° C. for 30 min. After the reaction was completed, the amount of cAMP in the cells was quantified according to the method in the instructions of the cAMP test kit (Perkin Elmer, Cat #TRF0263). The antagonistic effects (IC50 value) were calculated for the test compounds.
[8] abbreviates: intravenous administration 1 mg/kg.
[9] abbreviates: intravenous administration 1 mg/kg, read-out: Vz.
[10] abbreviates: oral gavage administration 3 mg/kg.
The mark [11] stands for this setting: oral gavage administration 5 mg/kg.

T2 sequence (P35408 whole entry): as above

Regarding `C[C@H](NC(=O)c1c(C(F)F)nn(C)c1Oc1cccc(C(F)(F)F)c1)c1ccc(C(=O)O)cc1` [Control Compound, reference compound], the area under the curve AUC(0-t) in data set [1] (setting [8]) is 3730 ng·h/mL; in data set [1] (setting [10]) it was 6800 ng·h/mL; in data set [2] (setting [8]), 974 ng·h/mL; in data set [2] (setting [11]), 1770 ng·h/mL; in data set [4] (setting [8]), 1420 ng·h/mL; in data set [4] (setting [11]) it was 6850 ng·h/mL. In addition, the results for the clearance in data set [1] (setting [8]), in data set [2] (setting [8]) and in data set [4] (setting [8]) were 4 mL/min/kg, 14.7 mL/min/kg and 10.2 mL/min/kg, respectively. The half-life in data set [1] (setting [8]) is 9.36 h; in data set [1] (setting [10]), 18.6 h; in data set [2] (setting [8]) it was 6.64 h; in data set [2] (setting [11]), 30.9 h; in data set [4] (setting [8]) it was 10.9 h; in data set [4] (setting [11]), 12.7 h. The Vd was 3.21 L/kg in data set [1] (setting [9]), 8.38 L/kg in data set [2] (setting [9]) and 9.55 L/kg in data set [4] (setting [9]). Also, the peak concentration (Cmax) in data set [1] (setting [10]) was determined as 1360 ng/mL; in data set [2] (setting [11]), 792 ng/mL; in data set [4] (setting [11]), 1100 ng/mL. Moreover, the results for the time of peak concentration (Tmax) in data set [1] (setting [10]), in data set [2] (setting [11]) and in data set [4] (setting [11]) were 1 h, 0.25 h and 0.5 h, respectively. For the same compound, in data set [3], the “relative tumor inhibition rate TGI (%)” value is 54%.

Take `CCc1cc(Oc2c(C(=O)N[C@@H](C)c3ccc(C(=O)O)cc3)c(C(F)F)nn2C)ccc1F` [Compound I-2, (S)-4-(1-(3-(difluoromethyl)-5-(3-ethyl-4-fluorophenoxy)-1-methyl-1H-pyrazole-4-carboxamido)ethyl)benzoic Acid]: in data set [2] (setting [11]), the exposure AUC(0-t) worked out at 2140 ng·h/mL, the peak level (Cmax) was 1840 ng/mL, the Tmax is 0.33 h and the half-life is 15.7 h. In data set [5], the concentration for half-maximal inhibition (IC50) was 5.5 nM and the inhibition constant Ki was determined as 3 nM. The “relative tumor inhibition rate TGI (%)” value in data set [3] stood at 63%. Also, in data set [6], the IC50 is 7.4 nM. For the same compound, the IC50 in data set [7] turned out to be 1.9 nM.
